“And” between values parts separate entries of the source, which are not always exact repeats. Equal values may be shown once. “Also recorded” adds a separate entry of the source. Read-outs that look alike come from different tables or passages of the source.
How the values were obtained:
[1] = system: GABAAR containing single α-subunits; test: Patch clamp assay of chloride-flux inward currents at GABAAR containing single α-subunits (FIG. 12); type: cell-based; settings: dose-response curves, α4 or α6 GABAAR compared to other α-subtypes
Excerpt: Selectivity is quantified by dose-response curves showing greater inward currents (i.e., agonist activity) by action of GABAAR bearing a4 or a6 compared to other α-subtypes.
Two compounds having selective activity bias for α4-GABAAR were identified (FIG. 12). Patch clamp assays were used to quantify chloride flux induced inward currents resulting from agonism of GABAAR containing single α-subunits.

human Jurkat E6-1 cells = test: Automated patch clamp (IonFlux) for potentiation of GABA, membrane polarization in Jurkat E6-1 cells; type: cell-based; settings: tested with 0.1 μM GABA; preliminary assay development studies
Protocol: Inserts show inward rectifying currents ([…]) at various doses. Compounds tested with 0.1 μM GABA. Curves show average of four determinations at indicated doses and standard deviations.
Both compounds were investigated using a CD4+ T-lymphocyte cell line (Jurkat E6-1) for potentiation of GABA using automated patch clamp (IonFlux). In contrast to manual patch clamp assays; this high throughput system enables dose dependent efficacy testing of more than 20 test conditions per day.

GP tracheal rings = test: Direct relaxation of guinea pig tracheal rings contracted with TEA or substance P; settings: CM-D-45 200 um, 15 minutes
Protocol: Male Hartley guinea pigs (approximately 400 g) were anesthetized with intraperitoneal pentobarbital (100 mg/kg). Trachea were removed and dissected under a dissecting microscope into closed rings comprised of two cartilaginous segments. Epithelium was removed by gentle abrasion on the tracheal lumen with cotton. Tissues were placed into cold Krebs-Henseleit (KH) buffer (in mM: NaCl 118, KCl 5.6, CaCl2 0.5, MgSO4 0.24, NaH2PO4 1.3, NaHCO3 25, glucose 5.6, pH 7.4) containing indomethacin 10 uM (DMSO final concentration in organ baths of 0.01%) to block tone due to endogenous release of prostanoids. […]
To determine the direct relaxant effect of α4 subunit containing GABAA receptor activation using different contractile agonists, GP tracheal rings prepared according to Reference Example 3 were contracted with a single dose (10 mM) of TEA or (1 uM) substance P. Following a plateau in the generated muscle force, a single dose of CM-D-45 (200 um) or vehicle control (DMSO 0.1%) was added to the organ bath buffer and the percentage of relaxation achieved was assessed over 15 minutes in comparison to intra-experimental matched vehicle controls.

murine tracheal rings = test: Relaxation of acetylcholine-induced contraction in murine tracheal rings (wild type and GABAA α4 knockout), Example 13; settings: CMD-45 100 uM, 30 minutes, ACh ~EC50; wild type vs GABAA α4 knockout mice; p<0.01 vs vehicle
Excerpt: Adult male C57/B16 wild type mice or adult male mice globally deficient in the GABAA a4 subunit (from Dr. Gregg Homanics, University of Pittsburgh) were euthanized with an overdose of sodium pentobarbital. Tracheas were rapidly removed and placed in modified Krebs-Henseleit buffer of the following composition in mM: 115 NaCl, 2.5 KCl, 1.91 CaCl2, 2.46 MgSO4, 1.38 NaH2PO4, 25 NaHCO3, 5.56 D-glucose: pH 7.4 Connective tissue was removed under a dissecting microscope and tracheas were cut in half axially. One-half trachea was used in each chamber of a myograph bath (DMT: Ann Arbor, Mich.), one-half used for vehicle treatment and the other half used for drug (i.e. CMD-45) treatment. […] Tension was continuously digitally recorded using BioPac hardware connected to Acknowledge software. […] An ACh ˜EC50 was determined for each tracheal ring based on these dose response curves.
In relaxation studies, tracheal ring were contracted to the determined ˜EC50 and force was allowed to plateau. Single concentrations of vehicle (0.1% DMSO) or CMD-45 (100 uM) were added and continuous muscle force was measured over 30 minutes. The data are expressed as the percent of remaining tone at 30 minutes relative to the initial force achieved with the EC50 concentration of acetylcholine. […]

[2] = system: Guinea pig tracheal rings; test: Airway smooth muscle force in guinea pig ex vivo tracheal rings, Example 20; settings: added after acetylcholine EC50 contraction
Protocol: Male (400 g) Dunkin Hartley guinea pigs were anesthetized with 100 mg/kg pentobarbital. Trachea were removed and divided into 8 closed circular rings each comprised of 2 cartilagenous segments. Adventitia and epithelium were dissected off under a microscope. Closed rings were suspended in 2 ml Radnoti organ baths connected to a Grass FT03 force transducer under 1 g resting tension at 37° C. with bubbled oxygenation 95% O2/5% CO2 and allowed to equilibrate for 1 h at resting tension with buffer exchanges every 15 min. Continuous digital recording of airway smooth muscle contractile force was done with Biopac hardware connected to Acknowledge v 7.3.3 software. Preliminary contractile challenges with performed with acetylcholine dose responses (0.1 nM-100 uM) 3 times with buffer exchanges and resetting of resting tension between each dose response. The Guinea pig tracheal rings were contracted with acetylcholine (an EC50 concentration for each ring). Following stabilization of the contractile force, the GABAA α5 selective negative modulator or the GABAA non-selective antagonist gabazine was added to the buffer.

[3] = system: Guinea pig (GP) tracheal rings; test: Isoproterenol-mediated relaxation of acetylcholine-contracted guinea pig tracheal rings with α4 GABAA selective agonist; settings: for potentiation of isoproterenol-mediated relaxation: single dose 500 uM THIP or 200 uM taurine, acetylcholine pre-contracted; for EC50: Cavia porcellus, read-out: EC50 of isoproterenol relaxation concentration-response curve
GABAA receptors [4] = test: Whole cell voltage clamp electrophysiology (Fluxion microfluidic plate) of human airway smooth muscle cells; type: cell-based
Protocol: (§1) Human immortalized bronchial smooth muscle cell lines prepared as described were grown to confluence in M199 media (Gibco) containing 10% fetal bovine serum, 0.25 ng/ml epidermal growth factor, 1 ng/ml fibroblast growth factor, ITS supplement (1 mg/ml insulin, 0.55 mg/ml transferrin, 0.67 ug/ml sodium selenium) and antibiotics (100 units/ml penicillin G sodium, 100 μg/ml streptomycin sulfate, 0.25 μg/ml amphotericin B) in a humidified atmosphere of 5% CO2/95% air at 37° C. Twenty four hours prior to study, cells were fed with serum and growth factor free media.
On the day of the assay, human airway smooth muscle cells (prepared as described in Reference Examples 1 and 2) were released from collagen-coated plates with collagenase type IV (Sigma C5138; 500 units/ml). The cells were resuspended in external buffer solution (In mM: NaCl 147, MgCl2 2, CaCl2 2, HEPES 10, dextrose 10; pH 7.2, osmolarity 320 mOsm) and rocked at room temperature to allow cells to obtain a spherical shape. Approximately 1 million cells were centrifuged (300×g, 3 min), washed ×2 in external buffer, and loaded (final volume of 400 uL) into a Fluxion microfluidic plate with each experimental group representing an ordered arrangement of 20 cells in parallel whole cell configuration. Following generation of adequate cellular membrane seals (40-120 MΩ), whole cell recordings were obtained under voltage clamp conditions (−80 mV) to a dose response to THIP (0.3 uM-300 uM). In separate assays cells were also co-treated simultaneously with 20 uM gabazine (GABAA receptor antagonist) and 25 uM THIP. In addition, to confirm that THIP-induced currents were due to chloride efflux, in separate experiments the intracellualar buffer (in mM: MgCl2 4, EGTA 10, HEPES 10, CsCl 130, Mg-ATP 4, CsOH 10, pH 7.2, 290 mOsM) was modified by replacing […] CsCl with 140 Cs gluconate to inhibit the magnitude of the […] current at −80 mV.

GABAA receptors [5] = test: FLIPR membrane potential fluorescent dye assay in cultured human airway smooth muscle cells; type: cell-based; settings: for antagonism of THIP-induced fluorescent / membrane potential changes: picrotoxin 200 uM, THIP 500 uM and 1 mM
Protocol: as §1
To determine whether activation of GABAA receptors induces membrane potential changes in cultured human airway smooth muscle cells the FLIPR in vitro fluorescent dye assay (Molecular Devices) was used. Human airway smooth muscle cells (prepared as described in Reference Examples 1 and 2) were grown to 100% confluence in 96 well black-walled plates and were washed with warmed (37° C.) low chloride buffer (consisting of in mM: 160 sodium-D-gluconate, 4.5 potassium-D-gluconate, 2 CaCl2, 1 MgCl2, 10 D-glucose, and 10 Hepes pH 7.4) four times. A stock solution (100% dye) of FLIPR blue dye was prepared by reconstitution of 1 vial (125 mg) with 100 ml of the low chloride buffer (assay buffer). A 50% working stock was prepared by further diluting the reconstituted blue dye 1:1 with assay buffer and was used to load cells (90 ul/well) over 20 minutes at 37° C. All reagents were dissolved in assay buffer. Baseline fluorescence was measured for 3 min prior to the first control additions (assay buffer). Three minutes later, airway smooth muscle cells were exposed to varying concentrations of THIP (0-10 mM) to determine a dose response. The fluorescence produced by membrane potential change following solution additions was quantified after subtracting changes induced by assay buffer alone. For subsequent antagonist assays, the first solution injected was either assay buffer, vehicle control (0.05% DMSO final), or the GABAA receptor antagonist picrotoxin (200 uM final) followed THIP (either 0.5 or 1 mM).

Molecule: COc1ccc2c(c1)C(=O)N1CCC[C@H]1c1c(C(=O)OC(C)C)ncn1-2
- melting point: 215 to 217 °C

Molecule: CNC(=O)c1ncn2c1[C@@H]1CCCN1C(=O)c1cc(OC)ccc1-2 [CM-D-45, N-methyl (S)-11,12,13,13a-tetrahydro-7-methoxy-9-oxo-9H-imidazo-[1,5-a]pyrrolo-[2,1-c][1,4]-benzodiazepine-1-carboxamide]
- functional selectivity among GABAAR α-subtypes (inward currents, agonist activity) [1]: selectivity bias in favor or α4 and α6-GABAAR
- membrane polarization, inward rectifying currents (human Jurkat E6-1 cells): hyperpolarizing membrane dose-response signals can be generated
- muscle force, % of initial force remaining after substance P contraction (GP tracheal rings; 1 uM substance P contraction): 61.3% and 61.3±16.9%
- muscle force, % of initial TEA-induced force remaining (GP tracheal rings; 10 mM TEA contraction): 54.3% and 54.3±14.3%
- relaxation of an acetylcholine induced contraction (percent of remaining tone) (murine tracheal rings): relaxation of an acetylcholine (Ach) induced contraction in murine tracheal rings from wild-type but not GABAA α4 knockout mice

Molecule: COCc1ncn2c1CN(C)C(=O)c1cc(Cl)ccc1-2 [PWZ-029]
- change in airway smooth muscle force [2]: increase in force

Molecule: Oc1noc2c1CCNC2 [THIP]
- muscle force, % of initial acetylcholine-induced force ([3]; THIP (500 uM) plus isoproterenol, n=8): 22.9 ±13.2%
- potentiation of isoproterenol-mediated relaxation [3]: significantly potentiated the relaxant effects of isoproterenol
- mean evoked current (GABAA receptors [4]; 10 uM THIP, 11/12 arrays of 20 cells in whole cell configuration): −670.4+27.6 pA
- EC50 (GABAA receptors [4]; THIP 0 to 300 uM, voltage clamped at −80 mV, read-out: EC50, current elicited in whole cell configuration): ~15000 nM and 15000 nM
- EC50 (GABAA receptors [5]; THIP 0 to 10 mM, low chloride buffer, n=12, read-out: EC50, change in relative fluorescence (membrane potential)): 245000 nM

Molecule: COc1ccc(-c2ccc(=N)n(CCCC(=O)O)n2)cc1 [gabazine]
- reversal of agonist potentiation of isoproterenol-mediated relaxation ([3]; gabazine pretreatment 15 min prior to acetylcholine): significantly reversed the THIP potentiation of isoproterenol-mediated relaxation; also recorded: significantly reversed the potentiation of isoproterenol-mediated relaxation provided by taurine
- muscle force, % of initial acetylcholine-induced force ([3]; gabazine pretreatment, then THIP plus isoproterenol, n=8): 53.1±11.4%
- attenuation of THIP induced whole cell currents (GABAA receptors [4]; gabazine with THIP 25 uM, −80 mV): attenuation of the THIP-induced current; also recorded: attenuation of THIP induced whole cell currents

Molecule: CC(C)NCC(O)c1ccc(O)c(O)c1 (stereo not shown) [isoproterenol]
- EC50 ([3]; isoproterenol after a single concentration of 200 uM taurine, n=7): 2.4 nM
- EC50 ([3]; isoproterenol after a single concentration of 500 uM THIP, n=8): 7.6 ± 0.5 nM
- EC50 ([3]; isoproterenol only (THIP experiment), n=8): 32.8 nM
- EC50 ([3]; isoproterenol only (taurine experiment), n=6): 15.8 nM
- EC50 ([3]; isoproterenol with 200 uM taurine subsequent to 200 μM gabazine pretreatment, n=7): 4.7 nM
- EC50 ([3]; isoproterenol with 500 uM THIP subsequent to 500 μM gabazine pretreatment, n=8): 11.8 ± 0.6 nM
- muscle force, % of initial acetylcholine-induced force ([3]; isoproterenol alone at low concentration, n=8): 76.5±8.5%

Molecule: NCCS(=O)(=O)O [taurine]
- potentiation of isoproterenol-mediated relaxation [3]: potentiated isoproterenol-mediated relaxation

Molecule: picrotoxin
- antagonism of THIP-induced fluorescent / membrane potential changes (GABAA receptors [5]): attenuation of THIP-induced fluorescent changes
- antagonism of THIP-induced fluorescent / membrane potential changes (GABAA receptors [5]; listed as Picrotoxin): antagonism of THIP mediated membrane potential changes persisted even under conditions of high dose THIP

From US9879020B2, “GABAA agonists and methods of using to control airway hyperresponsiveness and inflammation in asthma” (priority 2012, dated 2018)
